Consider two molecules from US20220054588A1, “USE OF SAP FOR THE TREATMENT OF EUROTIOMYCETES FUNGI INFECTIONS” (HUMANITAS MIRASOLE S.P.A., priority 2018, published 2022).

The subject of one test is Candida albicans. Description: FACS binding of biotin-conjugated murine SAP to Candida albicans, with competition. Here is the method: FIG. 16 depicts the binding of Sap on Candida. a) FACS analysis of binding of biotin-conjugated (b-) murine SAP (Sap; 10 μg/ml) to bastospore, yeast and hyphae of Candida albicans (1×10^8). Human SAP (50 μg/ml) was also used to compete binding of Sap. […] Survival of wt and Apcs^−/− mice after retroorbital injection of 1×10^6 blastospores of Candida albicans. wt, n=10; Apcs^−/− n=12.
(§1) Binding of SAP. Conidia of A. fumigatus and A. flavus (1×10^8 CFU) were cultured 4 and 16 h under static condition in Sabouraud medium to respectively allow conidia swelling and germination. Blastospores and yeast of Candida albicans were prepared as previously described (Santus et al., 2017). Yeast (8×10^6/ml) were incubated at 37° C. for hyphal induction. Formation of hyphae was evaluated under a microscope at different time points until its amount was assessed at 95%. After washing with PBS^2+, pH 7.4, containing 0.01% (vol/vol) Tween-20 ® (Merck-Millipore), Cells (1×10^7 CFU) were incubated (1 h, r. t.) with biotin-labelled murine SAP (R&D Systems) at concentrations ranging from 0.1 to 10 μg/ml in PBS^2+, pH 7.4, containing 2% BSA (Sigma-Aldrich). […] After extensive washing, samples were incubated (30 min, r. t.) with Alexa Fluor® 647-conjugated streptavidin and binding was evaluated by FACS as frequency and MFI and visualized by confocal microscopy as described. […]

A further test has as its system A. fumigatus conidia. Description: FACS binding of biotin-conjugated murine SAP to A. fumigatus conidia, with competition. Set-up: species or system Aspergillus fumigatus. Conditions: Sap 10 μg/ml. The method, then: FIG. 1 depicts the interaction of SAP with A. fumigatus conidia in mice. a) induction of SAP circulating levels after i.t. injection of 5×10^7 A. fumigatus (AF) conidia; LPS, 0.8 mg/Kg. Mean±SD. c) FACS analysis of binding of biotin-conjugated (b-) murine SAP (Sap; 10 μg/ml) to viable dormant or germinating conidia of AF (1×10^8). Human SAP (50 μg/ml) and CRP (50 μg/ml) were also used. Mean±SD of one quadruplicate experiment of two performed.
FIG. 10 depicts the susceptibility to A. fumigatus associated with single or double deficiency for SAP and PTX3. a and b, survival of wt and Apcs^−/−, Ptx3^−/− and Apcs^−/−, Ptx3^−/− mice after i.t. injection of 1×10^8 (a) or 5×10^7 (b) conidia. a, wt, n=9 (a, b); n=9 (a, b); Ptx3^−/−, n=7 (a) or n=10 (b); Ptx3^−/−, n=5 (a) or n=12 (b). a, b, P<0.05, wt vs. Apcs^−/− P<0.01 wt vs. Apcs^−/−, Ptx3^−/−; P=0.06, Apcs^−/−, Ptx3^−/− vs. Ptx3^−/− (Mantel-Cox test). a) Curves of wt and Apcs^−/− refer to the same ones shown in FIG. 2a-c FACS analysis of Sap (range from 0.1 to 10 μg/ml) binding to viable AF conidia (1×10^8) in presence of Ptx3 (50 μg/ml). An anti-Sap monoclonal antibody (non-reactive to Ptx3) was used. Mean±SD of a triplicate. **, P<0.01;***, P<0.005;****, P<0.0001 (unpaired t-test).
as §1, with “95%.” for “95%. After washing with PBS^2+, pH 7.4, containing 0.01% (vol/vol) Tween-20 ® (Merck-Millipore), Cells (1×10^7 CFU) were incubated (1 h, r. t.) with biotin-labelled murine SAP (R&D Systems) at concentrations ranging from 0.1 to 10 μg/ml in PBS^2+, pH 7.4, containing 2% BSA (Sigma-Aldrich).”

Another test concerns human neutrophils. Description: Phagocytosis of A. fumigatus conidia by isolated human neutrophils in normal or complement-depleted human sera. The test is classed as cell-based. Here is the method:
FIG. 8 depicts the initiation of classical complement activation at the bases of SAP-mediated phagocytosis. a) fluorescein-labelled AF conidia (1.6×10^6) phagocytosis by freshly isolated human neutrophils (2×10^5) in presence of sera depleted (−) from complement components and the effect of SAP opsonisation after 1 and 30 min AF conidia (2×10^8) opsonisation with 100 μg of human native SAP. 5% (left) or 10% (right) of human sera were used. Mean±SEM;*, P<0.05;**, P<0.01;***, P<0.005;***, P<0.0001 (Mann-Whitney test). b) FACS analysis of C1q deposition on AF conidia (1×10^7) in presence of plasma from wt or Apcs^−/− mice. Mean±SEM;*, P=0.05.
Human neutrophils were isolated from fresh whole blood of healthy volunteers through separation from erythrocytes by 3% dextran (GE Healthcare Life Sciences) density gradient sedimentation followed by Ficoll-Paque PLUS (GE Healthcare Life Sciences) and 62% Percoll® (Sigma-Aldrich) centrifugation as previously described (Moalli et al., 2010). Purity, determined by FACS analysis on forward scatter/side scatter parameters, was routinely >98%. 1×10^5 neutrophils were incubated for 1 and 30 min at 37° C. in 50 μl RPMI-1640 medium with 5 and 10% normal human serum (NS) or complement depleted sera and 1×10^5 FITC-labelled A. fumigatus conidia. Cells were transferred on ice and, after washing with PBS, pH 7.4, containing 10 mM EDTA and 0.2% bovine serum albumin (BSA; Sigma-Aldrich), FITC fluorescence in neutrophils (CD45-positive cells, neutrophils defined as FSC-A^high/SSC-A^high) was analysed by BD FACS Canto™ II Flow Cytometer (BD Biosciences). NS and sera depleted for C3, C1q, MBL, FB and FH were all obtained from CompTech (Complement Technology, Inc., USA).

As for “human native SAP: Native SAP from human serum purchased by Merck-Millipore; Serum Amyloid P component, SEQ ID NO: 1”, the “competition of Sap binding to Candida albicans” value in the test with Candida albicans (competitor 50 μg/ml) is “competed”. In the test on A. fumigatus conidia (competitor 50 μg/ml), the “competition of murine SAP binding to A. fumigatus conidia” value is “competed”. Also, the potentiation of phagocytosis result was “but not” in the test on human neutrophils (C1q-depleted serum); “but not” in the test with human neutrophils (C3-depleted serum); 55.5±17.0% with human neutrophils (MBL-depleted serum 5%); 19.8±6.1% with human neutrophils (MBL-depleted serum 10%); 37.4±10.3% in the test on human neutrophils (normal human serum 5%); 18.3±2.0% in the test on human neutrophils (normal human serum 10%).

B1: recombinant murine SAP: recombinant murine SAP from mouse myeloma cell line NSO (R&D Systems) (protein, UniProt P12246 21-224, looked up)
Serum amyloid P-component: QTDLKRKVFVFPRESETDHVKLIPHLEKPLQNFTLCFRTYSDLSRSQSLFSYSVKGRDNELLIYKEKVGEYSLYIGQSKVTVRGMEEYLSPVHLCTTWESSSGIVEFWVNGKPWVKKSLQREYTVKAPPSIVLGQEQDNYGGGFQRSQSFVGEFSDLYMWDYVLTPQDILFVYRDSPVNPNILNWQALNYEINGYVVIRPRVWD
On to B1, for which the “binding to blastospores, yeasts and hyphae of Candida albicans” value in the test with Candida albicans (Sap 10 μg/ml) is given as “bound with low affinity”. For the same molecule, the “binding to A. fumigatus conidia” value with A. fumigatus conidia (FACS and confocal microscopy) is “bound viable dormant, swollen and germinated conidia”.
